Data on 7 compounds can be found in US7229997B2, “Compounds and their use” (Biovitrum AB, priority 2002, dated 2007).

For orientation: Ki means a dissociation constant, usually derived from enzyme kinetics or from competition with a known ligand.

The target in one assay is T1, human 5-HT2c receptor (Homo sapiens, UniProt P28335).
T1 construct: expressed in transfected cells
T1 sequence (P28335 33-458): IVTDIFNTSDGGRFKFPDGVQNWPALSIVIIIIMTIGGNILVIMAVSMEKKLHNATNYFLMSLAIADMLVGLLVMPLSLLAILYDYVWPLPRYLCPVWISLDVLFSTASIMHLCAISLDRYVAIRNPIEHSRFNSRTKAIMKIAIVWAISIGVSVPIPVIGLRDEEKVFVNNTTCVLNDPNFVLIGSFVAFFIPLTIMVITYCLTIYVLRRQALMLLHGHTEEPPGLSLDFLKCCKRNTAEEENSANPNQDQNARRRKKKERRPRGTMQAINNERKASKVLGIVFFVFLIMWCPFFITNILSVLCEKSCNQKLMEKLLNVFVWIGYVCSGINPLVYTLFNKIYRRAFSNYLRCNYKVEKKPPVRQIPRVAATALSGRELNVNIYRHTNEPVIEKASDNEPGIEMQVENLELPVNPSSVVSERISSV
Briefly: 5-HT2c receptor affinity assay (displacement of 3H-labelled 5-HT, Scintillation Proximity Assay). The format is binding.
Conditions: not given
The protocol:
The 5-HT2c receptor affinity of compounds in the Examples was determined in competition experiments, where the ability of each compound in serial dilution to displace ^3H-labelledlabeled 5-HT, bound to membranes prepared from a transfected HEK293 cell line stably expressing the human 5-HT2c receptor protein, was monitored by Scintillation Proximity Assay technology. Non-specific binding was defined using 5 μM mianserin.
For orientation: In a radioligand displacement assay an active substance lowers the binding of a labelled ligand.
Compound `CCSc1nc(N2CCNCC2)ccc1C(F)(F)F` [Example 17, 1-(6-Ethylsulfanyl-5-trifluoromethyl-pyridin-2-yl)-piperazine, acetate] returned a Ki of 15 nM.
Still for that read-out and setting: in the case of `CCSc1nc(N2CCNC[C@H]2C)ccc1C(F)(F)F` [Example 30, 1-(6-Ethylsulfanyl-5-trifluoromethyl-pyridin-2-yl)-2-(R)-methyl-piperazine, acetate] it was 24 nM; in that of `FC(F)(F)c1ccc(N2CCNCC2)nc1SCc1ccccc1Cl` [Example 15, 1-[6-(2-Chloro-benzylsulfanyl)-5-trifluoromethyl-pyridin-2-yl]-piperazine, acetate], 1 nM; in that of `FC(F)(F)c1ccc(N2CCNCC2)nc1OCc1ccco1` [Example 25, 1-[6-(Furan-2-ylmethoxy)-5-trifluoromethyl-pyridin-2-yl]-piperazine, acetate], 14 nM.
As to `COc1ccc(F)cc1COc1nc(N2CCNCC2)ccc1C(F)(F)F` [Example 36, 1-[6-(5-Fluoro-2-methoxy-benzyloxy)-5-trifluoromethyl-pyridin-2-yl]-piperazine, acetate], the Ki is 5 nM.

The assay is the same for the next values; noted with them: membranes from transfected HEK293 cells expressing human 5-HT2c receptor; 3H-5-HT radioligand; read-out: 5-HT2C receptor Affinity Ki.
For the compound `C[C@H]1CN(c2ccc(C(F)(F)F)c(SCc3ccccc3Cl)n2)CCN1` [Example 38, 1-[6-(2-Chloro-benzylsulfanyl)-5-trifluoromethyl-pyridin-2-yl]-3-(S)-methyl-piperazine, acetate], the Ki was 6 nM.
With `FC(F)(F)c1ccc(N2CCNCC2)nc1OCCOc1cccc2cccnc12` [Example 21, 8-[2-(6-Piperazin-1-yl-3-trifluoromethyl-pyridin-2-yloxy)-ethoxyl-quinoline, acetate], the Ki came out at 246 nM.
